Experimental data taken from ChEMBL document CHEMBL3885881, “DrugMatrix”.

Species: Rattus norvegicus
Experiment: DrugMatrix - Regimen: Daily Repeat
Assay type: toxicity, organism-based, Sprague-Dawley
Design: regimen Daily Repeat, gender Male, age 6-8 weeks
Conditions: in vivo, po, 100 mg/kg, route oral GAVAGE, […]; for ABSOLUTE BASOPHIL / ABSOLUTE EOSINOPHIL / ABSOLUTE LYMPHOCYTE / ABSOLUTE MONOCYTE / ABSOLUTE SEGMENTED NEUTROPHIL / BASOPHIL / EOSINOPHIL / ERYTHROCYTE COUNT / HEMATOCRIT / HEMOGLOBIN / LEUKOCYTE COUNT / LYMPHOCYTE / MEAN CORPUSCULAR HEMOGLOBIN / MEAN CORPUSCULAR HEMOGLOBIN CONCENTRATION / MEAN CORPUSCULAR VOLUME / MONOCYTE / NEUTROPHIL / NUCLEATED RED BLOOD CELLS / PLATELET COUNT: tissue Blood; for ALANINE AMINOTRANSFERASE / ALBUMIN / ALKALINE PHOSPHATASE / ASPARTATE AMINOTRANSFERASE / BLOOD UREA NITROGEN / CARBON DIOXIDE / CHLORIDE / CHOLESTEROL / CREATINE PHOSPHOKINASE / CREATININE / GLUCOSE / LACTATE DEHYDROGENASE / LIPASE / PHOSPHORUS / POTASSIUM / SODIUM / TOTAL BILIRUBIN / TOTAL PROTEIN / URIC ACID: tissue Plasma
[1] = 72 h, dose level Low, time 3 day
[2] = 120 h, dose level High, time 5 day

## CC(C)(Oc1ccc(CCNC(=O)c2ccc(Cl)cc2)cc1)C(=O)O [BEZAFIBRATE]
[1]
  ABSOLUTE BASOPHIL: 0 CELLS/uL
  ABSOLUTE EOSINOPHIL: 180.5 CELLS/uL
  ABSOLUTE LYMPHOCYTE: 13739.67 CELLS/uL
  ABSOLUTE MONOCYTE: 378 CELLS/uL
  ABSOLUTE SEGMENTED NEUTROPHIL: 1401.83 CELLS/uL
  BASOPHIL: 0%
  EOSINOPHIL: 1.17%
  ERYTHROCYTE COUNT: 5.45 x10E6/uL
  HEMATOCRIT: 33.9%
  HEMOGLOBIN: 13.37 G/DL
  LEUKOCYTE COUNT: 15.7 x10E3/uL
  LYMPHOCYTE: 87.33%
  MEAN CORPUSCULAR HEMOGLOBIN: 24.55 pg
  MEAN CORPUSCULAR HEMOGLOBIN CONCENTRATION: 39.42 G/DL
  MEAN CORPUSCULAR VOLUME: 62.22 fL
  MONOCYTE: 2.33%
  NEUTROPHIL: 9.17%
  NUCLEATED RED BLOOD CELLS: 0 /100WBC
  PLATELET COUNT: 1134.83 x10E3/uL
  ALANINE AMINOTRANSFERASE: 55.83 u/L
  ALBUMIN: 4.3 G/DL
  ALKALINE PHOSPHATASE: 373.17 u/L
  ASPARTATE AMINOTRANSFERASE: 81 u/L
  BLOOD UREA NITROGEN: 13.33 mg/dL
  CARBON DIOXIDE: 28.33 mmol/L
  CHLORIDE: 103.17 MEQ/L
  CHOLESTEROL: 50.33 mg/dL
  CREATINE PHOSPHOKINASE: 275.67 u/L
  CREATININE: 0.14 mg/dL
  GLUCOSE: 153.33 mg/dL
  LACTATE DEHYDROGENASE: 111.33 u/L
  LIPASE: 9.67 u/L
  PHOSPHORUS: 10.52 mg/dL
  POTASSIUM: 6.12 MEQ/L
  SODIUM: 143.38 MEQ/L
  TOTAL BILIRUBIN: 0.17 mg/dL
  TOTAL PROTEIN: 5.68 G/DL
  URIC ACID: 1.27 mg/dL
[2]
  BASOPHIL: 0.3%
  EOSINOPHIL: 0.42%
  ERYTHROCYTE COUNT: 6.75 x10E6/uL
  HEMATOCRIT: 45.06%
  HEMOGLOBIN: 14.3 G/DL
  LEUKOCYTE COUNT: 9.46 x10E3/uL
  LYMPHOCYTE: 82.9%
  MEAN CORPUSCULAR HEMOGLOBIN: 21.18 pg
  MEAN CORPUSCULAR HEMOGLOBIN CONCENTRATION: 31.76 G/DL
  MEAN CORPUSCULAR VOLUME: 66.76 fL
  MONOCYTE: 2.08%
  NEUTROPHIL: 12.9%
  PLATELET COUNT: 1359.2 x10E3/uL
  ALANINE AMINOTRANSFERASE: 30.4 u/L
  ALBUMIN: 3.86 G/DL
  ALKALINE PHOSPHATASE: 393.2 u/L
  ASPARTATE AMINOTRANSFERASE: 76.8 u/L
  BLOOD UREA NITROGEN: 8 mg/dL
  CHLORIDE: 110.2 MEQ/L
  CHOLESTEROL: 53.8 mg/dL
  CREATINE PHOSPHOKINASE: 309.2 u/L
  CREATININE: 0.58 mg/dL
  GLUCOSE: 111.8 mg/dL
  PHOSPHORUS: 13.26 mg/dL
  POTASSIUM: 5.98 MEQ/L
  SODIUM: 150.8 MEQ/L
  TOTAL BILIRUBIN: 0.2 mg/dL
  TOTAL PROTEIN: 5.94 G/DL
Dose level High, time 28 day
  BASOPHIL: 0.53%
  EOSINOPHIL: 0.56%
  ERYTHROCYTE COUNT: 7.67 x10E6/uL
  HEMATOCRIT: 46.81%
  HEMOGLOBIN: 15.51 G/DL
  LEUKOCYTE COUNT: 10.2 x10E3/uL
  LYMPHOCYTE: 83.76%
  MEAN CORPUSCULAR HEMOGLOBIN: 20.22 pg
  MEAN CORPUSCULAR HEMOGLOBIN CONCENTRATION: 33.13 G/DL
  MEAN CORPUSCULAR VOLUME: 61.05 fL
  MONOCYTE: 1.65%
  NEUTROPHIL: 12.36%
  PLATELET COUNT: 1339.5 x10E3/uL
  ALANINE AMINOTRANSFERASE: 33.6 u/L
  ALBUMIN: 4.04 G/DL
  ALKALINE PHOSPHATASE: 358.2 u/L
  ASPARTATE AMINOTRANSFERASE: 65.4 u/L
  BLOOD UREA NITROGEN: 15.6 mg/dL
  CHLORIDE: 108.6 MEQ/L
  CHOLESTEROL: 43.2 mg/dL
  CREATINE PHOSPHOKINASE: 130.9 u/L
  CREATININE: 0.51 mg/dL
  GLUCOSE: 147.9 mg/dL
  PHOSPHORUS: 11.62 mg/dL
  POTASSIUM: 6.83 MEQ/L
  SODIUM: 152.6 MEQ/L
  TOTAL BILIRUBIN: 0.2 mg/dL
  TOTAL PROTEIN: 6.41 G/DL
Dose level Low, time 7 day
  ABSOLUTE BASOPHIL: 0 CELLS/uL
  ABSOLUTE EOSINOPHIL: 36.5 CELLS/uL
  ABSOLUTE LYMPHOCYTE: 7716 CELLS/uL
  ABSOLUTE MONOCYTE: 109.33 CELLS/uL
  ABSOLUTE SEGMENTED NEUTROPHIL: 821.5 CELLS/uL
  BASOPHIL: 0%
  EOSINOPHIL: 0.5%
  ERYTHROCYTE COUNT: 5.31 x10E6/uL
  HEMATOCRIT: 33.28%
  HEMOGLOBIN: 13.1 G/DL
  LEUKOCYTE COUNT: 8.68 x10E3/uL
  LYMPHOCYTE: 88.67%
  MEAN CORPUSCULAR HEMOGLOBIN: 24.67 pg
  MEAN CORPUSCULAR HEMOGLOBIN CONCENTRATION: 39.37 G/DL
  MEAN CORPUSCULAR VOLUME: 62.68 fL
  MONOCYTE: 1.33%
  NEUTROPHIL: 9.5%
  NUCLEATED RED BLOOD CELLS: 0 /100WBC
  PLATELET COUNT: 1167.33 x10E3/uL
  ALANINE AMINOTRANSFERASE: 52.17 u/L
  ALBUMIN: 4.67 G/DL
  ALKALINE PHOSPHATASE: 346.67 u/L
  ASPARTATE AMINOTRANSFERASE: 68.17 u/L
  BLOOD UREA NITROGEN: 17.67 mg/dL
  CARBON DIOXIDE: 30.83 mmol/L
  CHLORIDE: 102.83 MEQ/L
  CHOLESTEROL: 57.83 mg/dL
  CREATINE PHOSPHOKINASE: 307.17 u/L
  CREATININE: 0.24 mg/dL
  GLUCOSE: 145.67 mg/dL
  LACTATE DEHYDROGENASE: 85.5 u/L
  LIPASE: 9.33 u/L
  PHOSPHORUS: 11.1 mg/dL
  POTASSIUM: 5.85 MEQ/L
  SODIUM: 143.98 MEQ/L
  TOTAL BILIRUBIN: 0.1 mg/dL
  TOTAL PROTEIN: 6.2 G/DL
  URIC ACID: 0.62 mg/dL
